Assay results taken from ChEMBL document CHEMBL3352377, “Discovery of selective and orally bioavailable protein kinase Cθ (PKCθ) inhibitors from a fragment hit” (J Med Chem, 2015).

Assays:
[1] = Permeability from apical to basolateral side in MDCK2-MDR1 cells at pH 7.4; type: ADME, cell-based, Canis lupus familiaris, MDCK-II; conditions: dog, MDCK-MDR1, pH 7.4; read-out: permeability
[2] = Unbound intrinsic clearance in human microsomes; type: ADME, Microsome
[3] = Unbound intrinsic clearance in rat microsomes; type: ADME, Microsome
[4] = Unbound intrinsic clearance in mouse microsomes; type: ADME, Microsome
[5] = Plasma clearance in rat at 1 mg/kg, iv or 3 mg/kg, po; type: ADME, organism-based
[6] = Half life in rat at 1 mg/kg, iv or 3 mg/kg, po; type: ADME, organism-based; conditions: in vivo
[7] = Cmax in rat at 1 mg/kg, iv or 3 mg/kg, po; type: ADME, organism-based; conditions: in vivo
[8] = AUC in rat at 1 mg/kg, iv or 3 mg/kg, po; type: ADME, organism-based; conditions: plasma
[9] = Oral bioavailability in rat at 3 mg/kg; type: ADME, organism-based; conditions: in vivo
[10] = Plasma clearance in mouse at 3 mg/kg, iv or 10 mg/kg, po; type: ADME, organism-based
[11] = Half life in mouse at 3 mg/kg, iv or 10 mg/kg, po; type: ADME, organism-based; conditions: in vivo
[12] = Cmax in mouse at 3 mg/kg, iv or 10 mg/kg, po; type: ADME, organism-based; conditions: in vivo
[13] = AUC in mouse at 3 mg/kg, iv or 10 mg/kg, po; type: ADME, organism-based; conditions: plasma
[14] = Oral bioavailability in mouse at 10 mg/kg; type: ADME, organism-based; conditions: in vivo
[15] = target: Voltage-gated inwardly rectifying potassium channel KCNH2 (Homo sapiens, UniProt Q12809); assay: Inhibition of human ERG
Voltage-gated inwardly rectifying potassium channel KCNH2, sequence (Q12809 whole entry): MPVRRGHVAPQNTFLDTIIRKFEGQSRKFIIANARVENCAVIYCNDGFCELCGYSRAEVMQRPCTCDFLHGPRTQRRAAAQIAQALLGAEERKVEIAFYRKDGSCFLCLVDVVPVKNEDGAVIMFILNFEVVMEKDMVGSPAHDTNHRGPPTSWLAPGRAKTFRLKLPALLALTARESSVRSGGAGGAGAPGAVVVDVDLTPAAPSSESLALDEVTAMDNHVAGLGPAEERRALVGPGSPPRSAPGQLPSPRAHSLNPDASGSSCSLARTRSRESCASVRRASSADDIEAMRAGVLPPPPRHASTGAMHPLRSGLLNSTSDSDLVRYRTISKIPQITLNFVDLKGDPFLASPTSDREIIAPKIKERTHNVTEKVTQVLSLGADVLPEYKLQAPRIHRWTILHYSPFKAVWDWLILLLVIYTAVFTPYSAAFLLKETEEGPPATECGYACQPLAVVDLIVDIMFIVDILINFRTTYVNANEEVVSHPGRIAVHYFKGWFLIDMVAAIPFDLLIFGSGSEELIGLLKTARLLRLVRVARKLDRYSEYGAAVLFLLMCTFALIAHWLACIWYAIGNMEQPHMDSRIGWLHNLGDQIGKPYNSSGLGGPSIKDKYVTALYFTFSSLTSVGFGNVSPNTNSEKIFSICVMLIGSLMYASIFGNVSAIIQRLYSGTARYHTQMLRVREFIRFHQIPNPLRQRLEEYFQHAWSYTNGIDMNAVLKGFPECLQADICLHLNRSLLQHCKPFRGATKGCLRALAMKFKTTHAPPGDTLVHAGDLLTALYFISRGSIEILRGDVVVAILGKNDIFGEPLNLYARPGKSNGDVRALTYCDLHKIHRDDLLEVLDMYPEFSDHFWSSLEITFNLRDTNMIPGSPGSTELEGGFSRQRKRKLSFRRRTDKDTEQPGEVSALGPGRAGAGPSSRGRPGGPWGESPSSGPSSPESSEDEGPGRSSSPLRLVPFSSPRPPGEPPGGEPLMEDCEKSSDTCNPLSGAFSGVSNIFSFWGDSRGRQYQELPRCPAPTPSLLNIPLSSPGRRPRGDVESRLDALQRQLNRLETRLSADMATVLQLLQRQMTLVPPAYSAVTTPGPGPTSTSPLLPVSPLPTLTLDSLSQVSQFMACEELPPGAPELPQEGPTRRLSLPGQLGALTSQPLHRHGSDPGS

[16] = Plasma concentration in concanavalin A-induced Balb/c mouse at 1 mg/kg, po dosed 2 hrs before concanavalin A challenge; type: ADME, organism-based; parameters: dose 1 mg/kg, route oral
[17] = Plasma concentration in concanavalin A-induced Balb/c mouse at 3 mg/kg, po dosed 2 hrs before concanavalin A challenge; type: ADME, organism-based; parameters: dose 3 mg/kg, route oral
[18] = Plasma concentration in concanavalin A-induced Balb/c mouse at 10 mg/kg, po dosed 2 hrs before concanavalin A challenge; type: ADME, organism-based; parameters: dose 10 mg/kg, route oral
[19] = Plasma concentration in concanavalin A-induced Balb/c mouse at 30 mg/kg, po dosed 2 hrs before concanavalin A challenge; type: ADME, organism-based; parameters: dose 30 mg/kg, route oral
[20] = Plasma concentration in concanavalin A-induced Balb/c mouse at 100 mg/kg, po dosed 2 hrs before concanavalin A challenge; type: ADME, organism-based; parameters: dose 100 mg/kg, route oral
[21] = Fraction unbound in mouse plasma; type: ADME, cell-free
Mus musculus [22] = assay: Reduction in paw swelling in DBA/J mouse model of glucose 6-phosphate isomerase-induced athritis at 30 mg/kg, po dosed twice daily from day 1 to day 17; type: functional
Mus musculus [23] = assay: Reduction in paw swelling in DBA/J mouse model of glucose 6-phosphate isomerase-induced athritis at 10 mg/kg, po dosed twice daily from day 1 to day 17; type: functional
[24] = AUC (0 to t) in DBA/J mouse model of glucose 6-phosphate isomerase-induced athritis at 10 mg/kg, po dosed twice daily from day 1 to day 17; type: ADME, organism-based; parameters: dose 10 mg/kg, route oral; conditions: in vivo
[25] = AUC (0 to t) in DBA/J mouse model of glucose 6-phosphate isomerase-induced athritis at 30 mg/kg, po dosed twice daily from day 1 to day 17; type: ADME, organism-based; parameters: dose 30 mg/kg, route oral; conditions: in vivo
Mus musculus [26] = assay: Toxicity in DBA/J mouse model of glucose 6-phosphate isomerase-induced athritis at 100 mg/kg, po dosed twice daily for >10 days; type: organism-based; parameters: dose 100 mg/kg, route oral; conditions: in vivo, 240 h
[27] = target: Protein kinase C alpha type (Homo sapiens, UniProt P17252)
cells = conditions: Homo sapiens, T-Blast, 24 h
Description: Inhibition of anti-CD3/anti-CD28 antibody-induced IL2 production in human T-Blast cells after 24 hrs

[28] = target: Protein kinase C beta type (Homo sapiens, UniProt P05771); assay: Inhibition of human recombinant PKCbeta expressed in Sf21 cells using Bio-cdc peptide substrate and ATP after 60 mins by time-resolved fluorescence in-vitro kinase assay
Protein kinase C beta type, sequence (P05771 whole entry): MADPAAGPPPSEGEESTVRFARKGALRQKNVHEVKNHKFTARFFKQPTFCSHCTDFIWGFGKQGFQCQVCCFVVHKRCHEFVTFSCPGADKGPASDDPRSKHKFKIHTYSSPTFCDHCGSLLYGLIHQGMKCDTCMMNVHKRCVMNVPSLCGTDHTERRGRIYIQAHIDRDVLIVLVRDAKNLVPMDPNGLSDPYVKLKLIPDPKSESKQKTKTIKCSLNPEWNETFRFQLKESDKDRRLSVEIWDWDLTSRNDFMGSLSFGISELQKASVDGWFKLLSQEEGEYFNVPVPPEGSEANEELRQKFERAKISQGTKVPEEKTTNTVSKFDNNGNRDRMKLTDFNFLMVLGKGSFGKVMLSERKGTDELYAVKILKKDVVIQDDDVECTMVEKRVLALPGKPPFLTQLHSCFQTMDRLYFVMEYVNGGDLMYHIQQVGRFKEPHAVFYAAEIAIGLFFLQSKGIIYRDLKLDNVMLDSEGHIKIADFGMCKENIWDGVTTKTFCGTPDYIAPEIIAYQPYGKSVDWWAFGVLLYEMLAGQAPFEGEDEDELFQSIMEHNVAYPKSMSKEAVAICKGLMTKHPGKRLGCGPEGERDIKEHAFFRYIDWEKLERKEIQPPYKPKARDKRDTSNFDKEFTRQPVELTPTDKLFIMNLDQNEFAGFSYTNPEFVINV

[29] = target: Protein kinase C delta type (Homo sapiens, UniProt Q05655); assay: Inhibition of human recombinant PKCdelta expressed in Sf21 cells using Bio-cdc peptide substrate and ATP after 60 mins by time-resolved fluorescence in-vitro kinase assay
Protein kinase C delta type, sequence (Q05655 whole entry): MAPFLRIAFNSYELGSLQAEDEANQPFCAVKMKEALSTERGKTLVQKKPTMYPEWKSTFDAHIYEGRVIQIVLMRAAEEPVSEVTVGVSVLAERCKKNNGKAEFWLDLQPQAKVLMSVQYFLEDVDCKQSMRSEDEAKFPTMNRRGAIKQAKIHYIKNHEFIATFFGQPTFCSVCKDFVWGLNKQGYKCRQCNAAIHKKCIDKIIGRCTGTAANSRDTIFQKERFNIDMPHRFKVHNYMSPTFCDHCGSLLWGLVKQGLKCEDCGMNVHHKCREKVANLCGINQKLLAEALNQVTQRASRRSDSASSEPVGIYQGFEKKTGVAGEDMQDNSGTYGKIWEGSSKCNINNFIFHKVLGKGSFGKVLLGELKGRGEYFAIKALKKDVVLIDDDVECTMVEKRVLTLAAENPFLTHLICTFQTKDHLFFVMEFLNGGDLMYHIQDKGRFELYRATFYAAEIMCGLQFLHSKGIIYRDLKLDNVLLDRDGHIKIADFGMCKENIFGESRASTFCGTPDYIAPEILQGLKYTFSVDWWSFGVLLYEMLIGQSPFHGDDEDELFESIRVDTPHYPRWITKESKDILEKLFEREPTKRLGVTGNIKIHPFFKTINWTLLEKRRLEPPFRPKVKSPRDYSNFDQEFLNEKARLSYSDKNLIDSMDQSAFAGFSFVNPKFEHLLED

[30] = target: T1, Protein kinase C epsilon type (Homo sapiens, UniProt Q02156); assay: Inhibition of human recombinant PKCepsilon expressed in Sf21 cells using Bio-cdc peptide substrate and ATP after 60 mins by time-resolved fluorescence in-vitro kinase assay
T1 sequence (Q02156 whole entry): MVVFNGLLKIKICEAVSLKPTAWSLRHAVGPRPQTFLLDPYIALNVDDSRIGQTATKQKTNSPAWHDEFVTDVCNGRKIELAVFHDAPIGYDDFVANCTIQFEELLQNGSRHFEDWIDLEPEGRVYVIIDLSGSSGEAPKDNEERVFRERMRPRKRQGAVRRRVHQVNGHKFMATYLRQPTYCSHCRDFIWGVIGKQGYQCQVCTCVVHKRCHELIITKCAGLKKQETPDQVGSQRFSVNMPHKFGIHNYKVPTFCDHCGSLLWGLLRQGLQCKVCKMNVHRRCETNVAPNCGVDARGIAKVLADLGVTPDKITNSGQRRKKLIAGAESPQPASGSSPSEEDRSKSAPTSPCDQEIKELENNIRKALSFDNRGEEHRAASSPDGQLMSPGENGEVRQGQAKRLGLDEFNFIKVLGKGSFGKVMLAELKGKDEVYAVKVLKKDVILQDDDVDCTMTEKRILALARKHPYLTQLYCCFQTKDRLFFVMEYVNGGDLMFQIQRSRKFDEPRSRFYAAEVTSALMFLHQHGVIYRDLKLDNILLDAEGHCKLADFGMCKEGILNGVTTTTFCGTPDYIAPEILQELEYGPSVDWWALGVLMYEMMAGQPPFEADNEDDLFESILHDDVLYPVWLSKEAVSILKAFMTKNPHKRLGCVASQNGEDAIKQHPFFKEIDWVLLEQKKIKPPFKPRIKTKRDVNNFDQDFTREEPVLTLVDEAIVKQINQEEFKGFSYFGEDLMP

[31] = target: Protein kinase C gamma type (Homo sapiens, UniProt P05129); assay: Inhibition of human recombinant PKCgamma expressed in Sf21 cells using Bio-cdc peptide substrate and ATP after 60 mins by time-resolved fluorescence in-vitro kinase assay
[32] = Inhibition of human recombinant […] expressed in Sf21 cells using Bio-cdc peptide substrate and ATP after 60 mins by time-resolved fluorescence in-vitro kinase assay
[33] = target: T2, Protein kinase C zeta type (Homo sapiens, UniProt Q05513); assay: Inhibition of human recombinant PKCzeta expressed in Sf21 cells using Bio-cdc peptide substrate and ATP after 60 mins by time-resolved fluorescence in-vitro kinase assay
T2 sequence (Q05513 whole entry): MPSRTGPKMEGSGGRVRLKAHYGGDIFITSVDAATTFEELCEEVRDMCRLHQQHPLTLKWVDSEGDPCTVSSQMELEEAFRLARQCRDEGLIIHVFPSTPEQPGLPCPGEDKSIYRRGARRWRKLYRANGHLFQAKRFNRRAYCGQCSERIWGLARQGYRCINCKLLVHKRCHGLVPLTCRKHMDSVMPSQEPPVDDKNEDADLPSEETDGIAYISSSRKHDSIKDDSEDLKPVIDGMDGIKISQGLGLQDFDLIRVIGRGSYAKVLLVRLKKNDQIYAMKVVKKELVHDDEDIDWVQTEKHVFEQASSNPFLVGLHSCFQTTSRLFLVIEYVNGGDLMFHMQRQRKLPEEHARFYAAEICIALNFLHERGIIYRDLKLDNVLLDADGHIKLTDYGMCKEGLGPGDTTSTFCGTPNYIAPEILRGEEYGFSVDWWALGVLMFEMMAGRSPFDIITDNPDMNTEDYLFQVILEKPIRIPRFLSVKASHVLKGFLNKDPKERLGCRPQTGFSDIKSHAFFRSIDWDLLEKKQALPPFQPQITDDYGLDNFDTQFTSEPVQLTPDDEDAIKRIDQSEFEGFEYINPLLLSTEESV

Canis familiaris [34] = assay: Reduction in dP/dtmax in anesthetized dog cardiovascular model at plasma concentration of 2.2 uM in presence of hexamethonium; type: ADME, organism-based, Canis lupus familiaris; parameters: scale not given: the % may be the effect or the level left; conditions: in vivo
Canis familiaris [35] = assay: Reduction in mean arterial pressure in anesthetized dog cardiovascular model at plasma concentration of 7.7 uM in presence of hexamethonium; type: ADME, organism-based, Canis lupus familiaris; conditions: in vivo
Canis familiaris [36] = assay: Reduction in dP/dtmax in anesthetized dog cardiovascular model at plasma concentration of 7.7 uM in presence of hexamethonium; type: ADME, organism-based, Canis lupus familiaris; parameters: scale not given: the % may be the effect or the level left; conditions: in vivo
Canis familiaris [37] = assay: Reduction in mean arterial pressure in anesthetized dog cardiovascular model at plasma concentration of 1.7 uM; type: ADME, organism-based, Canis lupus familiaris; conditions: in vivo
Canis familiaris [38] = assay: Reduction in dP/dtma in anesthetized dog cardiovascular model at plasma concentration of 1.7 uM; type: ADME, organism-based, Canis lupus familiaris; parameters: scale not given: the % may be the effect or the level left; conditions: in vivo
Canis familiaris [39] = assay: Reduction in mean arterial pressure in anesthetized dog cardiovascular model at plasma concentration of 6.9 uM; type: ADME, organism-based, Canis lupus familiaris; conditions: in vivo
Canis familiaris [40] = assay: Increase in dP/dtma in anesthetized dog cardiovascular model at plasma concentration of 7.7 uM; conditions: in vivo
Rattus norvegicus [41] = assay: Reduction in heart rate in rat cardiovascular model at 3 to 30 mg/kg dosed over 30 mins infusions; conditions: in vivo, iv, 0.5 h
Canis familiaris [42] = assay: Reduction in mean arterial pressure in anesthetized dog cardiovascular model in presence of hexamethonium; conditions: in vivo
Rattus norvegicus [43] = assay: Effect on left ventricular dP/dt50 in rat cardiovascular model at 3 to 30 mg/kg dosed over 30 mins infusions; conditions: in vivo, iv, 0.5 h
Rattus norvegicus [44] = assay: Reduction in mean arterial pressure in rat cardiovascular model at 3 to 30 mg/kg dosed over 30 mins infusions; conditions: in vivo, iv, 0.5 h

Papp A→B [1] [×10⁻⁶ cm/s]	CL free [2] [mL/min/kg]	CL free [3] [mL/min/kg]	CL free [4] [mL/min/kg]	clearance [5] [mL/min/kg]	half-life [6] [h]	Cmax [7] [ng/mL]	AUC [8] [ng·h/mL]	bioavailability [9] [%]	clearance [10] [mL/min/kg]	half-life [11] [h]	Cmax [12] [ng/mL]	AUC [13] [ng·h/mL]	bioavailability [14] [%]	IC50 [27] [µM]	IC50 (cells) [µM]	Structure (SMILES)	IC50 [15] [µM]	further results
1.5	< 33	< 55	< 95	45	4.7	160	782	74	25	3.1	846	9260	108	1.7	0.12	C[C@@H]1C(=O)NN=C2COc3cc(C(F)(F)F)c(NC4(C)CNC4)cc3N21	> 30	concentration at 2 h [16]: 37 nM; concentration at 2 h [17]: 110 nM; concentration at 2 h [18]: 310 nM; concentration at 2 h [19]: 900 nM; concentration at 2 h [20]: 2500 nM; fraction unbound [21]: 0.27; inhibition in vivo at 30 mg/kg (Mus musculus [22]): 100%; inhibition in vivo at 10 mg/kg (Mus musculus [23]): 62%; AUC(0-t) [24]: 4500 ng·h/mL; AUC(0-t) [25]: 15100 ng·h/mL; Activity (Mus musculus [26]): Toxic
0.44	80	< 78.3	< 138	35	5.5	80	409	28	96.7	2.7	342	1730	85	4.6	0.22	C[C@@H]1C(=O)NN=C2COc3cc(C(F)(F)F)c(NC4CNC4)cc3N21	> 30	IC50 [28]: 1.5 µM; IC50 [29]: 0.47 µM; IC50 [30]: 0.14 µM; IC50 [31]: 7.8 µM; IC50 [32]: 3.9 µM; IC50 [33]: 33 µM; Activity (Canis familiaris [34]): -4%; Activity (Canis familiaris [35]): -12 mmHg; Activity (Canis familiaris [36]): -7%; Activity (Canis familiaris [37]): 1 mmHg; Activity (Canis familiaris [38]): 3%; Activity (Canis familiaris [39]): 3 mmHg; Activity (Canis familiaris [40]): 34%; Activity (Rattus norvegicus [41]): Toxic; Activity (Canis familiaris [42]): -3 mmHg; Activity (Rattus norvegicus [43]): Non-toxic; Activity (Rattus norvegicus [44]): Toxic
